{"source": "patent US7625948B2", "about": "“Ester compound and medicinal use thereof” (Japan Tobacco Inc., priority 2002, dated 2009)", "tested_on": "Japanese white rabbits", "assay": "Test Example 5: combination use test in cholesterol-loaded rabbit model (plasma cholesterol)", "type": "in vivo", "conditions": "1 mg/kg in high cholesterol diet, from grouping to the 4th day", "description": "Japanese white rabbits (male, 19 weeks of age, JW, purchased from Kitayama Labes Co., Ltd.) were fed previously in such a way that they were fed a high cholesterol diet (0.3% cholesterol+3% peanut oil-added RC-4, Product of Oriental Yeast Co., Ltd.) of 70 g/day under limited feeding for one day. The rabbits thus fed were used as a cholesterol-loaded rabbit model, and the grouping of such model was carried out in such a way that there might be no variation in the amount of plasma cholesterol among each group (five rabbits/group). […] The rabbits were fed 70 g of each diet every morning. Blood was collected from auricular artery 6 hours after the feeding on the 4th day of the administration, and cholesterol level in plasma was assayed. In the table, increased amount of plasma cholesterol during from the time of grouping to the 4th day was shown."}
{"compound": "CCC(C)(C)C(=O)O[C@H]1C[C@@H](C)C=C2C=C[C@H](C)[C@H](CC[C@@H]3C[C@@H](O)CC(=O)O3)[C@H]21", "note": "[Simvastatin, simvastatin, reference compound]", "values": [{"measurement": "Increased amount of total cholesterol", "result": 48.6, "unit": "mg/dL"}]}
